These results are taken from patent US5780589A, “Ultraselective opioidmimetic peptides and pharmacological and therapeutic uses thereof” (The United States of America as represented by the …, priority 1994, dated 1998).

Like-named read-outs stand apart in the source and are kept apart here. Non-standard residues stand in square brackets, D forms with d. Residues, ends and D or L forms follow the SMILES beside them. No end group written: not given here. Dmt = Cc1cc(O)cc(C)c1C[C@H](N)C(=O)O; Tic = O=C(O)[C@@H]1Cc2ccccc2CN1; dTic = O=C(O)[C@H]1Cc2ccccc2CN1

Test [1] has as its target δ receptors (Mus musculus, UniProt P32300). The conditions noted are these: for antagonist properties in MVD bioassay: in vitro mouse vas deferens. How it is done: (§1) The in vitro pharmacological assays were undertaken using published methods (32) based on the organ bath technique of Kosterlitz and Watt (50). For μ receptors, a 2-3 cm segment of guinea-pig ileum (GPI) mounted in a 20 mL organ bath and for δ receptors, a single mouse vas deferens (MVD) was obtained from a mature animal.

The target of test [2] is μ receptors (Cavia porcellus, UniProt P97266). Put plainly: Guinea-pig ileum (GPI) bioassay, electrically stimulated contractions. How it is done:
as §1

The target of test [3] is T1, δ receptor (Rattus norvegicus, UniProt P33533).
T1 construct: Rat membrane synaptosome preparations (P2 fraction) were prepared as detailed previously; from tissue; host or cells: rat synaptosomal membranes (P2 fraction)
Put plainly: Multi-site (one- vs two-site) δ receptor binding analysis. The conditions noted are these: for Ki: Prism fit; for δ receptor binding model fitted: one-site vs two-site; for Percent low-affinity sites: two-site δ receptor fit. The protocol:
(§2) Rat membrane synaptosome preparations (P2 fraction) were prepared as detailed previously, which included a preincubation step to reduce the presence of endogenous ligands and binding of G proteins (33,40). […] Samples were rapidly filtered through wetted glass fiber filters and thoroughly washed with 6 mL (3×2 mL) ice-cold 50 mM Tris-HCl, pH 7.5, containing 0.01-0.1% chicken egg albumin or bovine serum albumin. […] The filters were dried at 70° C. and the radioactivity determined after an overnight incubation period in CytoScint to maximize the radioactivity detected and reduce variability between samples. The IC50 values were converted to affinity constants (Ki) according to Cheng and Prusoff (48).
Multi-site binding analyses, based on stringent statistical methods, were performed as described in Bryant et al. (41) and Attila et al. (49). Receptor assays were conducted in triplicate with 25-35 graded concentrations of peptide; the resulting curves were both individually assessed and combined from several distinct assays, and analyzed using Prism™ (v. 1.02, GraphPad, San Diego, Calif.).

Test [4] has as its target T2, δ opioid receptor (Rattus norvegicus, UniProt P33533).
T2 construct: Rat membrane synaptosome preparations (P2 fraction) were prepared as detailed previously; from tissue; host or cells: rat synaptosomal membranes (P2 fraction)
As to the kind of experiment: δ receptor binding, rat membrane synaptosomes, [3H]DPDPE. The following applies: for Ki: [3H]DPDPE, rat synaptosomes (P2), mean ± SEM; for μ/δ (receptor selectivity): ratio Ki μ / Ki δ; for selectivity change on D-Tic substitution: δ→μ. How it is done: as §2

The target in test [5] is T3, μ receptor (Rattus norvegicus, UniProt P33535).
T3 construct: Rat membrane synaptosome preparations (P2 fraction) were prepared as detailed previously; from tissue; host or cells: rat synaptosomal membranes (P2 fraction)
Put plainly: μ receptor binding, rat membrane synaptosomes, [3H]DAGO. The conditions noted are these: rat synaptosomes (P2), mean ± SEM. The protocol:
as §2

In test [6] the target is T2, δ opioid receptor. The following applies: data from Temussi et al. (39), cited from earlier work; for Ki: [3H]DPDPE; for μ/δ (receptor selectivity): ratio Ki μ / Ki δ.
The target in test [7] is T3, μ receptor. The following applies: [3H]DAGO; data from Temussi et al. (39); cited from earlier work.
The mark [8] stands for this setting: concentration equivalent of pA2, against deltorphin C.
Where [9] appears, read: high affinity δ site, read-out: Ki (nM) High.
[10] abbreviates: low affinity δ site, read-out: Ki (nM) Low.
The mark [11] stands for this setting: guinea-pig ileum, read-out: GPI IC50.

δ receptors, sequence (P32300 whole entry): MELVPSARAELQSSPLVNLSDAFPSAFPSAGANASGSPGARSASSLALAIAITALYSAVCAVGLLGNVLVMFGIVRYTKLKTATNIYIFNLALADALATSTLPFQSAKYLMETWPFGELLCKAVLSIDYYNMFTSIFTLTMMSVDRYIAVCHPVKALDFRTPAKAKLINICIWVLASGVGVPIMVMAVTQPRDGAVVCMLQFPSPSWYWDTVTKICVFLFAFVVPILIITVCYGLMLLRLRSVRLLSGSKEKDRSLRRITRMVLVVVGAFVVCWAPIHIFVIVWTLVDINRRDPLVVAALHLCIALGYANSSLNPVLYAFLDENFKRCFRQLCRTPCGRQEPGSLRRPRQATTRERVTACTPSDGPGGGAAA
μ receptors, sequence (P97266 whole entry, looked up): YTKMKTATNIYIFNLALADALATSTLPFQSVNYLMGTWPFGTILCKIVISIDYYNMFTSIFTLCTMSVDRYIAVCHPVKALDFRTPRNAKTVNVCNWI
T1 sequence (P33533 whole entry): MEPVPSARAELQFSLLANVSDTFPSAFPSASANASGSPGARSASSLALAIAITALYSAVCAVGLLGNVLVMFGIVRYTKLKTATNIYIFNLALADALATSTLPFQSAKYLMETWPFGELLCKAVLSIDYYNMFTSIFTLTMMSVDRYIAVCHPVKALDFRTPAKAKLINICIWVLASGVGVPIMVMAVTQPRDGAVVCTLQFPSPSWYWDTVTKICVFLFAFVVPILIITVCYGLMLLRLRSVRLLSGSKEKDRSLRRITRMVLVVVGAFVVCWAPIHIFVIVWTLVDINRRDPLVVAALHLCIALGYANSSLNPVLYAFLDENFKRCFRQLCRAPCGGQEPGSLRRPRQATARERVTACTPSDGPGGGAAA
T2 sequence (P33533 whole entry): as above
T3 sequence (P33535 whole entry): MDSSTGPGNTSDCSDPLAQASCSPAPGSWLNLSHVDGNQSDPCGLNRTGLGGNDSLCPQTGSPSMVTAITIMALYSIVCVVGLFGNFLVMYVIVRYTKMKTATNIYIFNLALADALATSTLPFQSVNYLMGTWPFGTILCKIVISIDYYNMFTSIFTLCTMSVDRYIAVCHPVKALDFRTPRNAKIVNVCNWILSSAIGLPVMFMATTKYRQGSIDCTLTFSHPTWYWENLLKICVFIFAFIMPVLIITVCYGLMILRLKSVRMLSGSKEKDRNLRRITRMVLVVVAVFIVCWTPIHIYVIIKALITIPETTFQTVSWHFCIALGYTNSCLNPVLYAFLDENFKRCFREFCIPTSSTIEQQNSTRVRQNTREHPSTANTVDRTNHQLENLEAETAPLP

On to `Oc1ccc2c3c1O[C@H]1c4[nH]c5ccccc5c4C[C@@]4(O)[C@@H](C2)N(CC2CC2)CC[C@]314` [Naltrindole, naltrindole, reference compound], for which the “MVD pA2” value in test [1] (antagonism against deltorphin C as the agonist) is 9.2. Moreover, the “MVD” value in test [1] (setting [8]) stood at 0.7 nM. In addition, in test [2] (guinea-pig ileum), the “GPI nM (with pA2)” value was determined as 53 nM and the “GPI pA2” value is listed as 7.3.

Usually Ki stands for a measure of affinity in units of concentration, obtained from inhibition or displacement. A word on the IC50: it is the concentration needed to halve the response being measured. Turning to `Cc1cc(O)cc(C)c1C[C@H](N)C(=O)N1Cc2ccccc2C[C@H]1C(N)=O` [Peptide 2, Dmt-Tic-NH2] (H-[Dmt]-[Tic]-NH2; N-terminus assumed), in test [1], the Kb is 63.1 nM and the “antagonist properties in MVD bioassay” value is reported as “antagonist properties”. Besides, the “MVD” value in test [1] (setting [8]) came to 4.2 nM. Moreover, the Ki in test [3] (setting [9]) was 1.06 nM. Besides, in test [3], the “δ receptor binding model fitted” value is reported as “one-site binding model” and the Percent low-affinity sites worked out at 6.2 ± 40.1%. This compound had a Ki in test [4] of 1.22 ± 0.09 nM. This compound displayed an IC50 in test [2] of more than 10000 nM.

`Cc1cc(O)cc(C)c1C[C@H](N)C(=O)N1Cc2ccccc2C[C@@H]1C(=O)O` [Peptide 3, Dmt-D-Tic-OH] (H-[Dmt]-[dTic]-OH; N-terminus assumed): affinity in test [5] was put at a Ki of 224 ± 25.6 nM.

In test [4], `Cc1cc(O)cc(C)c1C[C@H](N)C(=O)N1Cc2ccccc2C[C@@H]1C(N)=O` [Peptide 4, Dmt-D-Tic-NH2] (H-[Dmt]-[dTic]-NH2; N-terminus assumed) came in with a Ki of 56.9 ± 2.9 nM.

Regarding `Cc1cc(O)cc(C)c1C[C@H](N)C(=O)N1Cc2ccccc2C[C@H]1CO` [Peptide 5, Dmt-Tic--CH2 OH], in test [1], the Kb was 100 nM and the “antagonist properties in MVD bioassay” value is given as “antagonist properties”. Moreover, the “MVD” value in test [1] (setting [8]) was determined as 6.6 nM. The same compound yielded a Ki in test [5] of 151 ± 16.3 nM. Also, the Ki in test [3] (setting [9]) worked out at 0.13 nM. The Ki in test [3] (setting [10]) was 5.2 nM. In addition, in test [3], the “δ receptor binding model fitted” value is listed as “two-site model” and the Percent low-affinity sites came out at 20.9 ± 5.3%. In test [4], the Ki amounted to 0.44 ± 0.14 nM and the “μ/δ (receptor selectivity)” value was found to be 344. Further, the IC50 in test [2] is more than 10000 nM.

For the compound `Cc1cc(O)cc(C)c1C[C@@H]1NC(=O)[C@@H]2Cc3ccccc3CN2C1=O` [Peptide 6, c(Dmt-Tic)], in test [1], the Kb is 3720 nM and the “antagonist properties in MVD bioassay” value is “antagonist properties”. In test [1] (setting [8]), the “MVD nM” value is on record as 3,800 nM. Besides, the inhibition constant (Ki) in test [5] worked out at 635 ± 69.3 nM. For the same compound, in test [3] (setting [9]), the Ki is 0.09 nM. The Ki in test [3] (setting [10]) worked out at 9.4 nM. Also, in test [3], the “δ receptor binding model fitted” value is on record as “two-site model” and the Percent low-affinity sites is reported as 86.8 ± 3.9%. The “μ/δ (receptor selectivity)” value in test [4] came out at 66. In addition, in test [4] (vs Tyr-Tic-OH (peptide 12) or c(Tyr-Tic) (peptide 17)), the “fold higher δ affinity relative to Tyr-Tic cognate” value is recorded as 4,000 fold. Moreover, it took 20000 ± 2000 nM to reach half-maximal inhibition in test [2] (IC50).

As to `Cc1cc(O)cc(C)c1C[C@@H]1NC(=O)[C@H]2Cc3ccccc3CN2C1=O` [Peptide 7, c(Dmt-D-Tic)], affinity in test [5] was put at a Ki of 728 ± 72.9 nM. For the same compound, in test [4], the affinity corresponds to a Ki of 499 ± 117 nM and the “μ/δ (receptor selectivity)” value was found to be 1.5.

On to `Cc1cc(O)cc(C)c1C[C@H](N)C(=O)N1Cc2ccccc2C[C@H]1C(=O)N[C@@H](C)C(=O)O` [Peptide 8, Dmt-Tic-Ala-OH] (H-[Dmt]-[Tic]-Ala-OH), for which the Kb in test [1] was 3.98 nM. The Ki in test [5] turned out to be 5810 nM; in test [3] (setting [9]), 0.12 nM; in test [3] (setting [10]) it was 4.8 nM; in test [4] it was 0.285 ± 0.03 nM. Moreover, the “μ/δ (receptor selectivity)” value in test [4] is 20,396. The IC50 in test [2] (setting [11]) was more than 10000 nM.

Consider `Cc1cc(O)cc(C)c1C[C@H](N)C(=O)N1Cc2ccccc2C[C@H]1C(=O)N[C@@H](C)C(N)=O` [Peptide 9, Dmt-Tic-Ala-NH2] (H-[Dmt]-[Tic]-Ala-NH2), for which the Ki was 0.18 nM in test [3] (setting [9]) and 10.7 nM in test [3] (setting [10]). Also, the “μ/δ (receptor selectivity)” value in test [4] is reported as 195. Moreover, in test [2] (setting [11]), the IC50 worked out at 4740 ± 900 nM.

`Cc1cc(O)cc(C)c1C[C@H](N)C(=O)N1Cc2ccccc2C[C@@H]1C(=O)N[C@@H](C)C(=O)O` [Peptide 10, Dmt-D-Tic-Ala-OH] (H-[Dmt]-[dTic]-Ala-OH) gave a Ki in test [5] of 82.8 ± 2 nM. Also, in test [4], the Ki is 88.7 ± 13.8 nM and the “μ/δ (receptor selectivity)” value is 0.93.

On to `Cc1cc(O)cc(C)c1C[C@H](N)C(=O)N1Cc2ccccc2C[C@@H]1C(=O)N[C@@H](C)C(N)=O` [Peptide 11, Dmt-D-Tic-Ala-NH2] (H-[Dmt]-[dTic]-Ala-NH2), for which the results for the Ki in test [5] and in test [4] were 5.8 ± 0.85 nM and 46.4 ± 2.7 nM, respectively. Further, the “μ/δ (receptor selectivity)” value in test [4] came out at 0.13.

Take `N[C@@H](Cc1ccc(O)cc1)C(=O)N1Cc2ccccc2C[C@H]1C(=O)O` [Peptide 12, Tyr-Tic-OH, reference compound] (H-Tyr-[Tic]-OH): the “μ/δ (receptor selectivity)” value in test [4] came to 148.

Compound `N[C@@H](Cc1ccc(O)cc1)C(=O)N1Cc2ccccc2C[C@@H]1C(=O)O` [Peptide 14, Tyr-D-Tic-OH, reference compound] (H-Tyr-[dTic]-OH) showed a Ki in test [5] of 26300 nM. Also, in test [4], affinity was put at a Ki of 9050 nM and the “μ/δ (receptor selectivity)” value worked out at 2.9.

Consider `NC(=O)[C@H]1Cc2ccccc2CN1C(=O)[C@@H](N)Cc1ccc(O)cc1` [Peptide 15, Tyr-D-Tic-NH2] (H-Tyr-[dTic]-NH2), for which, in test [6], the Ki is 5960 nM and the “μ/δ (receptor selectivity)” value is listed as 0.53. Besides, the Ki in test [7] is 3130 nM. In test [4], the “selectivity change on D-Tic substitution” value is “reversal of selectivity”.

As to `N[C@@H](Cc1ccc(O)cc1)C(=O)N1Cc2ccccc2C[C@H]1CO` [Peptide 16, Tyr-Tic-CH2 OH, reference compound], the Ki in test [5] stood at 11000 nM. Further, in test [4], the Ki worked out at 128 ± 34.7 nM and the “μ/δ (receptor selectivity)” value is recorded as 86.

In the case of `O=C1N[C@@H](Cc2ccc(O)cc2)C(=O)N2Cc3ccccc3C[C@@H]12` [Peptide 17, c(Tyr-Tic), reference compound], in test [5], the Ki worked out at 51500 nM. In test [4], affinity was put at a Ki of 41800 nM and the “μ/δ (receptor selectivity)” value is listed as 1.2.

Regarding `O=C1N[C@@H](Cc2ccc(O)cc2)C(=O)N2Cc3ccccc3C[C@H]12` [Peptide 18, c(Tyr-D-Tic), reference compound], in test [5], the Ki was 128000 nM. Also, in test [4], the Ki was determined as 8910 nM and the “μ/δ (receptor selectivity)” value worked out at 14.

Regarding `C[C@H](NC(=O)[C@H]1Cc2ccccc2CN1C(=O)[C@@H](N)Cc1ccc(O)cc1)C(=O)O` [Peptide 21, Tyr-D-Tic-Ala-OH, reference compound] (H-Tyr-[dTic]-Ala-OH), the Ki in test [5] turned out to be 14000 nM; in test [4], 2350 nM. In addition, in test [4], the “μ/δ (receptor selectivity)” value was 6.

On to `C[C@H](NC(=O)[C@H]1Cc2ccccc2CN1C(=O)[C@@H](N)Cc1ccc(O)cc1)C(N)=O` [Peptide 22, Tyr-D-Tic-Ala-NH2] (H-Tyr-[dTic]-Ala-NH2), for which the Ki is 21100 nM in test [6] and 8150 nM in test [7]. The “μ/δ (receptor selectivity)” value in test [6] is 0.39. Besides, the “selectivity change on D-Tic substitution” value in test [4] is “reversal of selectivity”.

With Tyr-Tic-NH2 [Peptide 13], in test [6], the Ki was 166 ± 48.1 nM and the “μ/δ (receptor selectivity)” value is 173. The Ki in test [7] was 28700 nM.

With Tyr-[Tic]-Ala-NH2 [Peptide 20], in test [6], the inhibition constant Ki was 55.5 ± 13.7 nM and the “μ/δ (receptor selectivity)” value is recorded as 610. For the same compound, the Ki in test [7] was 33800 nM.

Take Tyr-[Tic]-Ala-OH [Peptide 19]: in test [6], the Ki was 56.1 ± 10.3 nM and the “μ/δ (receptor selectivity)” value is recorded as 148. For the same compound, the Ki in test [7] was 8290 nM.
